Reference: publication PMC11249012 (Journal of Medicinal Chemistry, 2024)
Like-named read-outs stand apart in the source and are kept apart here.

Key:
[1] = tested on: hyperacetylation of tubulin, H3K9 and H3K27; assay: Western blot of tubulin and histone H3 hyperacetylation in 4TO7 cells; assay type: cell-based, mouse; conditions: hybrids 10 μM, SAHA 100 nM, 6 h
Method: (§1) The potential for compounds as HDACi’s can be rapidly tested in cells in culture by monitoring the hyperacetylation of histone H3 and tubulin. H3 acetylation is controlled by multiple class I enzymes, and the class IIb enzyme HDAC6 regulates tubulin acetylation.[36]−[39] […] (Figure 4A).
(§2) Figure 4 Evidence for HDAC inhibition in 4T1 and 4TO7 TNBC cells. Western blots and quantification of triplicate biological replicates analyzing the effects of 1,25D (100 nM), SAHA (100 nM), and hybrids (10 μM) on hyperacetylation of tubulin (A,D), H3K9 (B,E), and H3K27 (C,F) in 4T1 (A–C) and 4TO7 cells (D–F).
After 6 h treatments, 4T1, 4T07, or B16-F10 cells were solubilized in lysis buffer (20 mM Tris, pH 8, 150 mM NaCl, 1% Triton X-100, 3.5 mM SDS, and 13 mM deoxycholic acid), and proteins were separated on a 4–15% Tris/glycine/SDS gel (Bio-Rad). Then, the proteins were transferred to a nitrocellulose membrane, followed by blocking in 5% skim milk in Tris-buffered saline (TBS, 1×) solution. […] Finally, signals were detected using Clarity ECL substrates (Bio-Rad) and a ChemiDoc Imaging System. Changes in protein levels were quantified relative to control using Image Lab software (version 6.0.1) after normalization to GAPDH. […]

4T1 tumors = assay: 4T1 TNBC model in vivo (primary tumor and lung metastases); design: species or system mouse; conditions: 4T1 model; for #Surface metastases (lung): vehicle 166
Method: As 4T1 cells are aggressively metastatic, we can also assess the antimetastatic activity in the same experiment. All treatments were well tolerated, and, as in the B16-F10 model, none induced weight loss or other signs of stress over the course of the experiment (Figure 7A). Treatments reduced the primary tumor burden to varying degrees.
The antimetastatic activity was determined by counting the number of surface lung metastases of duplicate samples using a stereomicroscope. […] This degree of efficacy is remarkable, as in previous experiments, DK-406 reduced the metastatic burden by ∼2-fold.[30]
(§3) Finally, mice were sacrificed, and lungs of 4T1-bearing mice were removed to evaluate the efficiency of treatments on lung metastases.

VDR = biological target: T1, VDR (Mus musculus, UniProt P48281); assay: Cyp24a1 induction in B16-F10 melanoma cells; assay type: cell-based; design: endogenous in cells; host or cells: mouse B16-F10 melanoma cells; conditions: Figure S2A
T1 sequence (P48281 1-422): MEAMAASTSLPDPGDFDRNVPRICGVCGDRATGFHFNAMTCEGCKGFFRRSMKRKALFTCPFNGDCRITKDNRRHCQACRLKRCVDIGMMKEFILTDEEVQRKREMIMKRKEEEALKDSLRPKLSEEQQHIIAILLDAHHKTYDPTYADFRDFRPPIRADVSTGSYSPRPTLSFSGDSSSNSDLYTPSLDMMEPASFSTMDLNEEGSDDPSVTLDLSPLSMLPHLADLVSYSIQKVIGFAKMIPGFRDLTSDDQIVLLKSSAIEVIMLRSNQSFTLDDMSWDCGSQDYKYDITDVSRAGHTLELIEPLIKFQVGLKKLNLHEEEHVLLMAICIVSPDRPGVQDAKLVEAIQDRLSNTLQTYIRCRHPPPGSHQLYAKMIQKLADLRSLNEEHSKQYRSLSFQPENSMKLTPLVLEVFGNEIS
Description: B16-F10 cells are responsive to 1,25D analogues[45] and HDACi[46],[47] and are therefore widely used in preclinical studies of melanoma solid tumor growth and metastases.[48] Although curable when treated early, melanoma is fatal when invasive. The American Cancer Society projected 97,610 new invasive melanoma cases in the US in 2023 and 7990 deaths. Current treatment options include chemotherapy, surgery, immunotherapy, or single agents targeting mutated genes such as B-RAF or C-KIT.[49]
RNA extraction was performed with the FavorPrep tissue total RNA mini kit (FAVORGEN Biotech Corporation FATRK 001) as per manufacturer’s instructions. cDNA was obtained from 1 μg of RNA using 5× All-in-One RT MasterMix (Applied Biological Materials (abm) Inc. G485) and diluted 5 times. qPCR was performed with BrightGreen 2× q-PCR MasterMix (abm MasterMix-LR-XL) on a Roche LightCycler 96 system. Expression of targeted genes was normalized to 18 s.
Figure S2. A. Analysis of Cyp24a1 induction by ZG126, DK406, AM193 along with 1,25D and SAHA as controls in B16-F10 cells. B. Western blots analyzing the effects of 1,25D, SAHA and hybrids on hyperacetylation of tubulin, H3K9 and H3K27 in B16-F10 cells. C. Quantification of the analyses of hyperacetylation in B16-F10 cells of tubulin, H3K9 and H3K27. D. Assessment of cytotoxicity in B16-F10 […]
(1 picture or pasted object on this page, not shown here)

[2] = tested on: hyperacetylation of tubulin, H3K9 and H3K27; assay: Western blot of tubulin and histone H3 hyperacetylation in 4T1 cells; assay type: cell-based, mouse; conditions: hybrids 10 μM, 6 h
Method: as §1, §2
After 6 h treatments, 4T1, 4T07, or B16-F10 cells were solubilized in lysis buffer (20 mM Tris, pH 8, 150 mM NaCl, 1% Triton X-100, 3.5 mM SDS, and 13 mM deoxycholic acid), and proteins were separated on a 4–15% Tris/glycine/SDS gel (Bio-Rad). Then, the proteins were transferred to a nitrocellulose membrane, followed by blocking in 5% skim milk in Tris-buffered saline (TBS, 1×) solution. After blocking, the membranes were incubated overnight at 4 °C with the primary antibodies against acetylated tubulin (Sigma-Aldrich—#T7451), tubulin (Sigma-Aldrich—#T9026), acetyl-histone H3(Lys9) (Merck Millipore—#07-352), acetyl-histone H3 (Lys27) (Abcam—#ab4729), total histone H3 (Cell Signaling Technology (CST)—#3638), and GAPDH (Abcam—#ab8245). Then, the membranes were incubated with antimouse (CST—#7076) or antirabbit (CST—#7074) IgG HRP-linked secondary antibodies at recommended concentrations. Finally, signals were detected using Clarity ECL substrates (Bio-Rad) and a ChemiDoc Imaging System. Changes in protein levels were quantified relative to control using Image Lab software (version 6.0.1) after normalization to GAPDH. Western blot experiments were carried out three times.

B16-F10 tumors = assay: B16-F10 melanoma model in vivo; design: species or system mouse; conditions: 2 doses of 5 mg/kg 24 h apart; also VDR gene; duplicate tumors from two animals
Method: We were then interested in comparing the efficacy of ZG compounds and other hybrids in tumor models in vivo. We focused initially on the B16-F10 melanoma which is syngeneic with C57BL/6 mice. The efficacy of ZG-126 in vivo in this model was tested in two experiments. […] In a second experiment, we compared the antitumor efficacy of hybrids at ∼0.5 MTD doses. […] All treatments were well tolerated, and body weights were unaffected (Figure 6C).
as §3

HDAC9 = HDAC9 (Homo sapiens, UniProt Q9UKV0); assay: Biochemical assay for HDAC inhibition, HDAC9; conditions: concentrations as high as 100 μM
Sequence of HDAC9 (Q9UKV0 whole entry): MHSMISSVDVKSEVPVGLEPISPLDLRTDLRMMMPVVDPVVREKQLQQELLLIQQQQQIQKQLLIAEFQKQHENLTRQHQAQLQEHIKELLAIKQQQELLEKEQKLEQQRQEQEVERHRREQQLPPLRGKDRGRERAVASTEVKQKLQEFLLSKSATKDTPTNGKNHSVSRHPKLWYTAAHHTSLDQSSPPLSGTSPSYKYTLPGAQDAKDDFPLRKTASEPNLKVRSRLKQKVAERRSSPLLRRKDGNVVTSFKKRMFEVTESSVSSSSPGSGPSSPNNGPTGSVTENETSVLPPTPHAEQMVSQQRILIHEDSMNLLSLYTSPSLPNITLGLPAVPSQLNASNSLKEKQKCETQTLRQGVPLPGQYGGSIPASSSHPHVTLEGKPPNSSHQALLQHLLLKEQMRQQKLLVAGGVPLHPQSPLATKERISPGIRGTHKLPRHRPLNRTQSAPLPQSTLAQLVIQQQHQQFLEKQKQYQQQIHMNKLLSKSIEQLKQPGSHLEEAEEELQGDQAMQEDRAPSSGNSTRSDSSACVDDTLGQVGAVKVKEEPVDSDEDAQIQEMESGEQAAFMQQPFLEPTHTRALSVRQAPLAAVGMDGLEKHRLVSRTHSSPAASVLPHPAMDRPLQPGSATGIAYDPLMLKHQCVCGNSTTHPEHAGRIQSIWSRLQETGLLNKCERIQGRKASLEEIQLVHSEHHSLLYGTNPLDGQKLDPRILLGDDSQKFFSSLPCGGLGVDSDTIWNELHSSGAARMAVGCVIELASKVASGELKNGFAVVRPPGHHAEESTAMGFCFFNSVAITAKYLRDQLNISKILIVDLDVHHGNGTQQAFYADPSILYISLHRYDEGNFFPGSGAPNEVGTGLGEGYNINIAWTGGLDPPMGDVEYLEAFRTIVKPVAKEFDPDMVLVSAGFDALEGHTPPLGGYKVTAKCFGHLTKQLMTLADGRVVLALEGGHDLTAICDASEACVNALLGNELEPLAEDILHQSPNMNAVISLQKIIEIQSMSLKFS

HDAC4 = HDAC4 (Homo sapiens, UniProt P56524); assay: Biochemical assay for HDAC inhibition, HDAC4; conditions: read-out: IC50 HDAC4
Sequence of HDAC4 (P56524 whole entry): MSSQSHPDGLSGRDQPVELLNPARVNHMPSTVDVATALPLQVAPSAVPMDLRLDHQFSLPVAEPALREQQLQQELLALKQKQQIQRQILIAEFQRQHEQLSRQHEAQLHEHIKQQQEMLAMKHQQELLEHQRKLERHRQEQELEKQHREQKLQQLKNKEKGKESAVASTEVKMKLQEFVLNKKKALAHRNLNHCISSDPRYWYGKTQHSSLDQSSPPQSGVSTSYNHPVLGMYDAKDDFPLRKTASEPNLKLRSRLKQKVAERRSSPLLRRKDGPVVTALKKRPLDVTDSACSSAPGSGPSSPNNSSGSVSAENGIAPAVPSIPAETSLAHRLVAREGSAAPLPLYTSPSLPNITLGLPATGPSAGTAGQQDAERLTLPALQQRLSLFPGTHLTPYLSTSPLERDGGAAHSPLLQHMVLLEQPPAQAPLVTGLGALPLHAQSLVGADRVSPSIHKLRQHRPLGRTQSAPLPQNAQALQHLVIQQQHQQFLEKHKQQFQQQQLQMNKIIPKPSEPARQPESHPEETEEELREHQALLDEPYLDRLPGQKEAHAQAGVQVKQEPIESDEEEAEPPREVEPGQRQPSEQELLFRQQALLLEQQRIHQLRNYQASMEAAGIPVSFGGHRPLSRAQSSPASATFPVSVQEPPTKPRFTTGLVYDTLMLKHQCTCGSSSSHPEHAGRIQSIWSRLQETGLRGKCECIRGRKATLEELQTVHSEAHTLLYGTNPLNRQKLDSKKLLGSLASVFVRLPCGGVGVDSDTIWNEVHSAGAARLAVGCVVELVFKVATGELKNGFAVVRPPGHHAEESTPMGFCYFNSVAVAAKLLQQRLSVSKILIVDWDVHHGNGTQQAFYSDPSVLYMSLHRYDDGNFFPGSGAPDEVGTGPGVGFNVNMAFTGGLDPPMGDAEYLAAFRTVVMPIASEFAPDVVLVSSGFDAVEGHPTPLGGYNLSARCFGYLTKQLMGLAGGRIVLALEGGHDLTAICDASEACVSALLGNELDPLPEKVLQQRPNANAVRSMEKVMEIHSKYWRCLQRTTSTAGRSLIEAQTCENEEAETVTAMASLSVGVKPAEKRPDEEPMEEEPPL

CCC(CC)(c1ccc(C(=O)NCCCCC(=O)NO)cc1)c1ccc(OCC(O)C(C)(C)C)c(C)n1 (stereo not drawn) [ZG-126, 4-(3-(5-(2-Hydroxy-3,3-dimethylbutoxy)-6-methylpyridin-2-yl)pentan-3-yl)-N-(5-(hydroxyamino)-5-oxopentyl)benzamide]
tubulin and histone hyperacetylation [1]: induced higher levels of tubulin and histone hyperacetylation than SAHA
reduction in tumor burden (4T1 tumors; BALB/c mice, ZG-126 high dose 5 mg/kg, statistically significant): ~50%
#Surface metastases (lung) (4T1 tumors; 1,25D 0.25 μg/kg, SAHA 80 mg/kg, AM-193 0.2 mg/kg, ZG-126 high 5.0 mg/kg): 47
#Surface metastases (lung) (4T1 tumors; ZG-126 low 1.5 mg/kg): 126
reduction of surface lung metastases (4T1 tumors; high-dose ZG-126 (5 mg/kg)): ~4 fold
Cyp24a1 induction (VDR): mimicked
histone H3 hyperacetylation at lysine 9 and 27 (H3K9 and H3K27) [2]: comparable or superior to AM-193
tubulin acetylation ([2]; SAHA 100 nM): by far the most efficacious
Cyp24a1 induction in B16-F10 tumors (B16-F10 tumors): robust induction of Cyp24a1
inhibition of HDAC9 (HDAC9): no or very limited inhibition
IC50 (HDAC4): 68 µM
IC50 (HDAC4; Table 1, purified enzyme, unit inferred): 67.6 µM
